Measured values reported in US12139472B2, “Inhibitors of advanced glycation end products” (priority 2019, dated 2024).

Test system: CYP3A
Assay type: in vitro ADME, human
Settings: HLM
Excerpt: Compound 5 (PTG-630 free base) and 7 additional compounds for CYP3A P450 inhibition.
Imidazole (and benzimidazole) containing drugs are ubiquitous in pharmacological practice; however, drug-drug interactions (DDI) have been observed with some imidazole-containing classes, such as the antifungal azoles typified by ketoconazole. It is believed that the imidazole moiety accounts for their ability to inhibit CYP3A, the major DDI enzyme that metabolizes up to 50% of common drugs. The compounds of the disclosure incorporate an imidazole moiety attached to a pyridine ring via the imidazole C-2. They all share an imidazo-hydroxypyridine theme that can bind redox metal ions, while differing in the nature of the X side-chain. The potential of the compounds of the disclosure for DDI was evaluated by screening their inhibition of CYP3A.
Two studies were conducted in human liver microsomes (HLM). Lead candidate PTG-630 was tested using the Eurofins G232 panel (Drug Metab Dispos. 2001 January; 29(1):23-9), where inhibition was measured against seven CYP enzymes; CYP3A4 was tested using two different substrates, midazolam and testosterone. In a second study, inhibition of CYP3A4 (midazolam substrate only) was compared for 8 compounds of interest. The test protocol involved one-point measurements in duplicate, where inhibition was measured at a fixed 10 μM concentration of candidate inhibitors. In all cases, the substrate for each CYP enzyme was at a concentration equal to its specific Km value that was independently obtained from an 8-point dose-response study. Based on the observed value for percent inhibition for each test compound, we calculated of an IC50 assuming a competitive mode of inhibition. If percent inhibition for an inhibitor at a concentration of [I] is denoted by P, then: IC50=[I]*(100−P)/P In the single-point assay, [I] is 10 μM. If measured inhibition is 10%, then IC50=10*(100-10)/10=90 μM. […] As discussed in Lin et al. (J Pharm Sci. 2007 September; 96(9):2485-93; doi: 10.1002/jps.20884), CYP inhibition is broadly interpreted as being “potent” if IC50<1 μM, “moderate” if 1 μM<IC50<10 μM, and “weak” if IC50>10 μM.

In the case of `Cc1ncc(CN2CCCCCC2)c(-c2ncc[nH]2)c1O` [PTG-670], the “Estimated IC50” value (midazolam, from one-point % inhibition at 10 μM, IC50=[I]*(100−P)/P) is reported as “— None” and the P % inhib (substrate midazolam at Km, Inhib Conc. 1.0E−05 M) is reported as −1.1%.
